{"source": "patent US20100015128A1", "about": "“GRP78 as a Predictor of Responsiveness to Therapeutic Agents” (UNIVERSITY OF SOUTHERN CALIFORNIA, priority 2006, published 2010)", "key": {"[1]": {"tested_on": "GRP78", "assay": "Western blot of GRP78 in SK-N-SH cells with H129 antibody", "type": "cell-based, human", "details": "0.5 μM thapsigargin 16 hours", "experimental": "FIGS. 11A, 11B and 11C show specific detection of GRP78 by H129 antibody. FIG. 11A is a Western blot assay. The human neuroblastoma SK-N-SH cells were either grown under normal conditions (−) or treated with 0.5 μM thapsigargin for 16 hours. Fifty μg of total cell lysate prepared from these cells were subjected to Western blot analysis, using the […] (1:1000 dilution). […] In FIG. 11B, Chinese hamster ovary (CHO) cells expressing basal level of GRP78 and its derivative C.1 cells overexpressing GRP78 were embedded in paraffin after fixation in formalin. The sections prepared from these blocks were stained with the immunohistochemical technique using the H129 antibody (1:100 dilution). GRP78 level, as depicted by brown staining, was elevated in C.1 cells as compared to CHO cells (600×). In FIG. 11C, paraffin slides from breast cancer patients were stained with the H129 antibody with the immunohistochemical technique. Examples of plasma cell staining from two different patients are shown."}, "[2]": {"tested_on": "BIK", "assay": "BIK protein induction under stress conditions (Western blot)", "type": "cell-based, human", "details": "human cells", "from_the_text": "Cell lines and culture conditions. The estrogen-dependent cell line MCF-7/BUS was provided by A. M. Soto (Tufts University, Medford, Mass.) and has been described (Soto et al., Environ. Health Perspect. 103:113-22 (1995)). The human embryonic kidney 293T cells and MCF-7/BUS cells were maintained in DMEM supplemented with 10% fetal bovine serum. Estrogen starvation of MCF-7/BUS cells was done as described (Hur et al., PNAS 101:2351-6 (2004)). Briefly, the cells were washed thrice with phenol red-free DMEM and incubated in washing medium at 37° C. for 60 minutes. The MCF-7/BUS cells were then cultured in phenol red-free DMEM supplemented with 5% charcoal/dextran-stripped fetal bovine serum for 24 to 72 hours as indicated. For etoposide treatment, the cells were incubated with 50 μmol/L etoposide for 6 hours and cultured for another 24 hours before harvest.\nWestern blots and quantitation. The Western blots were done as described (Lee, Methods 35:373-81 (2005)). The primary antibodies were goat anti-BIK (N-19, Santa Cruz Biotechnology, Santa Cruz, Calif.), rat anti-Grp78 (76-E6, Santa Cruz Biotechnology), rat anti-GRP94, rabbit anti-calnexin, rabbit anti-calreticulin (Stressgen, Ann Arbor, Mich.), mouse anti-Flag M2, mouse anti-poly(ADP-ribose) polymerase (PARP; F-2, Santa Cruz Biotechnology, Santa Cruz, Calif.), and mouse anti-h-actin (Sigma-Aldrich, St. Louis, Mo.). Anti-h-actin was diluted at 1:2,000; anti-BIK at 1:500; and other antibodies at 1:1,000. Respective horseradish peroxidase-conjugated secondary antibodies (Santa Cruz Biotechnology, Santa Cruz, Calif.) at 1:1,000 dilution were used. The Western blots were quantitated by Fluor-S® MultiImager (Bio-Rad, Hercules, Calif.) according to the manufacturer's instructions. All quantitations were normalized against h-actin."}}}
{"smiles": "C/C=C(/C)C(=O)O[C@H]1C(C)=C2[C@H]([C@@H]1OC(=O)CCCCCCC)[C@@](C)(OC(C)=O)C[C@H](OC(=O)CCC)[C@@]1(O)[C@H]2OC(=O)[C@@]1(C)O", "note": "[thapsigargin]", "values": [{"measurement": "GRP78 protein band", "setting": "[1]", "value": "highly inducible"}, {"measurement": "induction of BIK by ER stress inducers", "setting": "[2]", "value": "do not induce"}]}
